Assay results taken from patent publication US20080039629A1, “Benzothniazole compositions and their use as ubiquition ligation inhibitors” (RIGEL PHARMACEUTICALS, INC., priority 2003, published 2008).

The compounds below were run against T1, E1 and His-E2 Ubch10 (Homo sapiens, UniProt P22314) (assay: E1 to E2 transfer assay, His-E2 Ubch10, 1.0 μM ATP (low ATP)). Conditions: Table 5, ATP inhibition properties; inhibition measured using IC50 values.
T1 construct: host or cells: E. coli (His-Ubch10); Sf9 insect cells (E1)
T1 sequence (P22314 1-1058): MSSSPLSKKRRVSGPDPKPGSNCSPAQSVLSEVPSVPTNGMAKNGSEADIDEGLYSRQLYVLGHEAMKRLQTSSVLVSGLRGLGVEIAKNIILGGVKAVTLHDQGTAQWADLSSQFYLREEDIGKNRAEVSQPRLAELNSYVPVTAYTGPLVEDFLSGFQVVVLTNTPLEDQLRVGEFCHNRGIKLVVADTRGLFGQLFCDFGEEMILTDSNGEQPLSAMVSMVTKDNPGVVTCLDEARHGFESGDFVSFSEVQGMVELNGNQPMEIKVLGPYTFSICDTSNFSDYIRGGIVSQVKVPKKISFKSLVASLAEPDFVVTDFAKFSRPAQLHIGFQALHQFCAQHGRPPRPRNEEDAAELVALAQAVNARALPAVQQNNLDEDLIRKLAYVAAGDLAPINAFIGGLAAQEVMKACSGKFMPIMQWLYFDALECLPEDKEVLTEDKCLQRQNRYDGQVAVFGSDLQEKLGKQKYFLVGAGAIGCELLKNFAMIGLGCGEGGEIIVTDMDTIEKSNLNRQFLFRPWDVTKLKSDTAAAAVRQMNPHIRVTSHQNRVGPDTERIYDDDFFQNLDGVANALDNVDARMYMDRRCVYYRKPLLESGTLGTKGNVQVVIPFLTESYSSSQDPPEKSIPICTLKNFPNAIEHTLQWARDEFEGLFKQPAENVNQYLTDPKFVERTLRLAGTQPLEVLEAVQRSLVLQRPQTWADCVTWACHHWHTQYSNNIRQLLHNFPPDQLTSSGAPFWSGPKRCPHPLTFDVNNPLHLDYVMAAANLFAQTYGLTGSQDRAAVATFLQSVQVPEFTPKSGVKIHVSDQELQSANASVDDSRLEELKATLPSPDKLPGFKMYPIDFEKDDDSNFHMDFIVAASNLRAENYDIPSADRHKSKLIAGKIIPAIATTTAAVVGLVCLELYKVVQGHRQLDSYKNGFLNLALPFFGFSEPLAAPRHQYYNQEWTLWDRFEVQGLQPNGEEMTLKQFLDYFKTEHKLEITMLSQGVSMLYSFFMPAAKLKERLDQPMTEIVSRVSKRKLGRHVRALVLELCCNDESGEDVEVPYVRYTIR
Assay type: biochemical
From the text: Biological assays for determining the transfer of ubiquitin from the E1 activating agent to the E2 conjugating agent are described in U.S. patent application Ser. Nos. 09/542,497 and 09/826,312 as well as in the PCT Application WO 01/75145, all of which are incorporated by reference in their entirety. The following assay example illustrates one way by which the ubiquitin ligase inhibitory activity of the compounds of the invention can be assayed. This assay example is not meant to limit in any way the use of the compounds of the invention as ubiquitin ligase inhibitors.
The attachment of a ubiquitin moiety to the E2 conjugating agent was assayed using Flag-ubiquitin that was purified from E. coli, E2 Ubch10 that was purified as a His-Ubch10 from E. coli, and E1 that was purified from Sf9 insect cells (Affiniti Research Products, Exeter, U.K.). The wells of a Nickel-substrate 96-well plate (Pierce Chemical) were blocked with 100 μl of 1% casein/phosphate buffered saline (PBS) for 1 hour at room temperature. The blocked Nickel-substrate plate was then washed three times with 200 μl of PBST (0.1% Tween-20 in PBS). Subsequently, Flag-ubiquitin reaction solution was added to each well so that the final concentration was 62.5 mM Tris pH 7.5, […], 0.75 mM DTT, 1.0 μM ATP (low ATP), and 100 ng Flag-ubiquitin. The final reaction solution volume was fixed to 80 μl with Millipore-filtered water. To this was added the following: a ubiquitin agent inhibitor in 10 μl of DMSO, 10 μl of E1 and His-E2 Ubch10 in 20 mM Tris buffer, pH 7.5, and 5% glycerol so that there was 10 ng/well of E1 and 20 ng/well of His-E2 Ubch10. The reaction was then allowed to proceed at room temperature for 1 hour.
After 1 hour, the wells were washed three times with 200 μl of PBST and the amount of E2-ubiquitin complex was measured. For measuring the amount of the E2-ubiquitin complex, 100 μl of Mouse anti-flag diluted 1:10,000 (Sigma Aldrich Fluka Chemicals, St. Louis, Mo.) and anti-mouse HRP diluted 1:15,000 (Jackson Immunoresearch labs, West Grove, Pa.) in PBST were added to each well and allowed to incubate at room temperature for another hour. The wells were then washed three times with 200 μl of PBST and 100 μl of luminol substrate (⅕ dilution) was added. The luminescence of each well was then measured using a […] to calculate the amount of E2-ubiquitin complex. This procedure was repeated using His-E2 Ubch5C instead of His-E2 Ubch10.
The table below illustrates the inhibitory properties of the pharmaceutical compostions of the invention comprising the compounds listed in the table using the assays described above. Inhibition was measured using IC50 values.

**Q.** `COc1ccc2nc(NC(=O)c3ccc([N+](=O)[O-])s3)sc2c1` [Compound 50, N-(6-methoxybenzo[d]thiazol-2-yl)-5-nitrothiophene-2-carboxamide] was tested. Which UBC10 did it give?
**A.** −− (−− indicates marginal or no inhibition detected with this assay)

**Q.** `COc1ccc2nc(NC(=O)Nc3ccc(Cl)cc3)sc2c1` [Compound 99, 1-(4-chlorophenyl)-3-(6-methoxybenzo[d]thiazol-2-yl)urea] was tested. Which UBC10 did it give?
**A.** −− (−− indicates marginal or no inhibition detected with this assay)

**Q.** `Cc1ccc2nc(NC(=O)c3ccc(C)c(C)c3)sc2c1` [Compound 80, 3,4-dimethyl-N-(6-methylbenzo[d]thiazol-2-yl)benzamide] was tested. Which UBC10 did it give?
**A.** −− (−− indicates marginal or no inhibition detected with this assay)

**Q.** For `COc1cccc(C(=O)Nc2nc3ccc(OC)cc3s2)c1` [Compound 60, 3-methoxy-N-(6-methoxybenzo[d]thiazol-2-yl)benzamide], which UBC10 is on record?
**A.** ++ (++ indicates inhibition at 50 μM or or less)

**Q.** Which UBC10 does the source give for `COc1ccc2nc(NC(=O)c3ccc(C)cc3)sc2n1` [Compound 152, N-(5-methoxythiazolo[5,4-b]pyridin-2-yl)-4-methylbenzamide] here?
**A.** ++ (++ indicates inhibition at 50 μM or or less)

**Q.** `COc1ccc2nc(NC(=O)c3ccc(C#N)cc3)sc2c1` [Compound 31, 4-cyano-N-(6-methoxybenzo[d]thiazol-2-yl)benzamide] was tested. Which UBC10 did it give?
**A.** ++ (++ indicates inhibition at 50 μM or or less)

**Q.** How did the UBC10 turn out when `CC(=O)Nc1ccc2nc(NC(=O)c3ccc(C)cc3)sc2c1` [Compound 72, N-(6-acetamidobenzo[d]thiazol-2-yl)-4-methylbenzamide] was run?
**A.** −− (−− indicates marginal or no inhibition detected with this assay)

**Q.** How did the UBC10 turn out when `COc1ccc2nc(NC(=O)Nc3cccc(F)c3)sc2c1` [Compound 100, 1-(3-fluorophenyl)-3-(6-methoxybenzo[d]thiazol-2-yl)urea] was run?
**A.** ++ (++ indicates inhibition at 50 μM or or less)

**Q.** `CCOc1ccc2nc(NC(=O)c3ccc(C)cc3)sc2c1` [Compound 92, N-(6-ethoxybenzo[d]thiazol-2-yl)-4-methylbenzamide] was tested. Which UBC10 did it give?
**A.** −− (−− indicates marginal or no inhibition detected with this assay)

**Q.** Which UBC10 does the source give for `COc1ccc2nc(NC(=O)c3ccco3)sc2n1` [Compound 153, N-(5-methoxythiazolo[5,4-b]pyridin-2-yl)furan-2-carboxamide] here?
**A.** ++ (++ indicates inhibition at 50 μM or or less)

**Q.** Which UBC10 does the source give for `COc1ccc2nc(NC(=O)c3cccc(F)c3)sc2n1` [Compound 141, 3-fluoro-N-(5-methoxythiazolo[5,4-b]pyridin-2-yl)benzamide] here?
**A.** ++ (++ indicates inhibition at 50 μM or or less)

**Q.** With `COc1ccc2nc(NC(=O)C3CCC3)sc2c1` [Compound 46, N-(6-methoxybenzo[d]thiazol-2-yl)cyclobutanecarboxamide] as the compound, how does the UBC10 read?
**A.** ++ (++ indicates inhibition at 50 μM or or less)

**Q.** For `COc1ccc(C(=O)Nc2nc3ccc(OC)nc3s2)cc1` [Compound 151, 4-methoxy-N-(5-methoxythiazolo[5,4-b]pyridin-2-yl)benzamide], which UBC10 is on record?
**A.** ++ (++ indicates inhibition at 50 μM or or less)

**Q.** For `COC(=O)c1ccc(C(=O)Nc2nc3ccc(N)cc3s2)cc1` [Compound 74, methyl 4-((6-aminobenzo[d]thiazol-2-yl)carbamoyl)benzoate], which UBC10 is on record?
**A.** −− (−− indicates marginal or no inhibition detected with this assay)

**Q.** For `COc1ccc2nc(NC(=O)Cc3ccccc3)sc2c1` [Compound 43, N-(6-methoxybenzo[d]thiazol-2-yl)-2-phenylacetamide], which UBC10 is on record?
**A.** −− (−− indicates marginal or no inhibition detected with this assay)

**Q.** For `O=C(Nc1nc2ccccc2s1)c1ccccc1` [Compound 168, N-(benzo[d]thiazol-2-yl)benzamide], which UBC10 is on record?
**A.** −− (−− indicates marginal or no inhibition detected with this assay)

**Q.** With `COc1ccc2nc(NC(=O)c3ccc(Cl)cc3Cl)sc2n1` [Compound 140, 2,4-dichloro-N-(5-methoxythiazolo[5,4-b]pyridin-2-yl)benzamide] as the compound, how does the UBC10 read?
**A.** −− (−− indicates marginal or no inhibition detected with this assay)

**Q.** Which UBC10 does the source give for `COc1ccc2nc(NC(=O)C(C)(C)C)sc2c1` [Compound 48, N-(6-methoxybenzo[d]thiazol-2-yl)pivalamide] here?
**A.** ++ (++ indicates inhibition at 50 μM or or less)

**Q.** `CCOc1ccc2nc(NC(=O)c3ccc4c(c3)OCCO4)sc2c1` [Compound 90, N-(6-ethoxybenzo[d]thiazol-2-yl)-2,3-dihydrobenzo[b][1,4]dioxine-6-carboxamide] was tested. Which UBC10 did it give?
**A.** ++ (++ indicates inhibition at 50 μM or or less)

**Q.** For `CC(C)(C)c1ccc(C(=O)Nc2nc3ccccc3s2)cc1` [Compound 176, N-(benzo[d]thiazol-2-yl)-4-tert-butylbenzamide], which UBC10 is on record?
**A.** −− (−− indicates marginal or no inhibition detected with this assay)

**Q.** `COc1ccc2nc(NC(=O)c3ccc4ccccc4c3)sc2c1` [Compound 25, N-(6-methoxybenzo[d]thiazol-2-yl)-2-naphthamide] was tested. Which UBC10 did it give?
**A.** −− (−− indicates marginal or no inhibition detected with this assay)

**Q.** Which UBC10 does the source give for `COc1ccc2nc(NC(=O)c3cccc(Cl)c3)sc2n1` [Compound 142, 3-chloro-N-(5-methoxythiazolo[5,4-b]pyridin-2-yl)benzamide] here?
**A.** ++ (++ indicates inhibition at 50 μM or or less)

**Q.** Which UBC10 does the source give for `CCOc1ccc2nc(NC(=O)c3ccc(C)c(C)c3)sc2c1` [Compound 93, N-(6-ethoxybenzo[d]thiazol-2-yl)-3,4-dimethylbenzamide] here?
**A.** −− (−− indicates marginal or no inhibition detected with this assay)

**Q.** How did the UBC10 turn out when `O=C(Nc1nc2ccccc2s1)C1CCCCC1` [Compound 205, N-(benzo[d]thiazol-2-yl)cyclohexanecarboxamide] was run?
**A.** −− (−− indicates marginal or no inhibition detected with this assay)

**Q.** With `COc1ccc2nc(NC(=O)c3cccc([N+](=O)[O-])c3)sc2c1` [Compound 54, N-(6-methoxybenzo[d]thiazol-2-yl)-3-nitrobenzamide] as the compound, how does the UBC10 read?
**A.** −− (−− indicates marginal or no inhibition detected with this assay)

**Q.** For `COc1ccc2nc(NC(=O)c3ccc(C)cc3C)sc2c1` [Compound 101, N-(6-methoxybenzo[d]thiazol-2-yl)-2,4-dimethyibenzamide], which UBC10 is on record?
**A.** ++ (++ indicates inhibition at 50 μM or or less)

**Q.** `COc1ccc2nc(NC(=O)Nc3ccc(C#N)cc3)sc2c1` [Compound 137, 1-(4-cyanophenyl)-3-(6-methoxybenzo[d]thiazol-2-yl)urea] was tested. Which UBC10 did it give?
**A.** −− (−− indicates marginal or no inhibition detected with this assay)

**Q.** How did the UBC10 turn out when `COc1ccc2nc(NC(=O)c3ccccc3)sc2n1` [Compound 139, N-(5-methoxythiazolo[5,4-b]pyridin-2-yl)benzamide] was run?
**A.** −− (−− indicates marginal or no inhibition detected with this assay)

**Q.** For `CCCCCCc1ccc(C(=O)Nc2nc3ccc(OC)cc3s2)cc1` [Compound 83, 4-hexyl-N-(6-methoxybenzo[d]thiazol-2-yl)benzamide], which UBC10 is on record?
**A.** −− (−− indicates marginal or no inhibition detected with this assay)
